Assay results from paper PMC12434670 (Journal of Medicinal Chemistry, 2025).
“Also recorded” adds a separate entry of the source. Read-outs that look alike come from different tables or passages of the source.

Key:
[1] = test system: A/H1N1 (Virg09) pseudovirus; assay: organism not typed; format: cell-based, influenza A virus; settings: for EC50: MDCK, 72 h, read-out: EC50 for A/H1N1 (Virg09) pseudovirus entry
[2] = test system: H1 HA protein (strain A/California/06/09); format: biochemical, influenza A virus
[3] = test system: A/H5N1 (FL22, A/bald eagle/FL/W22-114/2022) pseudovirus; assay: organism not typed; format: cell-based, influenza A virus; settings: read-out: EC50 for A/H5N1 (FL22) pseudovirus entry
[4] = test system: A/H1N1 virus A/PR/8/34 (PR8); assay: microbe, parasite or virus in culture; format: cell-based; settings: Influenza A virus, MDCK
[5] = test system: A/H1N1 virus Virg09 in Calu-3 cells; assay: microbe, parasite or virus in culture; format: cell-based; settings: Influenza A virus, H1N1, Calu-3, 72 h, read-out: EC50 in Calu-3 cells infected with Virg09
[6] = test system: A/H1N1 virus A/Virginia/ATCC3/2009 (Virg09); assay: microbe, parasite or virus in culture; format: cell-based, influenza A virus
[7] = test system: MDCK cells; settings: for Cytotoxicity MCC, Microscopy: dog
[8] = test system: A/H5N1 pseudovirus; settings: read-out: EC50 against A/H5N1 pseudovirus; cited from earlier work
[9] = test system: A/H5N1 virus; settings: read-out: EC50 against A/H5N1 virus; cited from earlier work
[10] = test system: A/H1N1 virus; assay: microbe, parasite or virus in culture; format: cell-based, influenza A virus; settings: for EC50: Influenza A virus, H1N1, MDCK, read-out: Antiviral EC50 against A/H1N1 virus
[11] = in vitro; settings: dog
[12] = biological target: H1 HA (Influenza A virus, UniProt C3W5S1); assay: cell-based
H1 HA, sequence (C3W5S1 18-344 limits assumed): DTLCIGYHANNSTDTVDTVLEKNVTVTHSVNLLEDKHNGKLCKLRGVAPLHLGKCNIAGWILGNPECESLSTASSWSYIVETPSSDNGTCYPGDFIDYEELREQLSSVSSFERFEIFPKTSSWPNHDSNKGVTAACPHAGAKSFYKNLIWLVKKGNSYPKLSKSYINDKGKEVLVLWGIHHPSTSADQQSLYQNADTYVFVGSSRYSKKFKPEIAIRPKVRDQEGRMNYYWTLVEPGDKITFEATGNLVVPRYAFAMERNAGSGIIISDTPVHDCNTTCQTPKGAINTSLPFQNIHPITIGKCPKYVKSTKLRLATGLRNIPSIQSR
H1 HA, sequence (C3W5S1 345-566 limits assumed): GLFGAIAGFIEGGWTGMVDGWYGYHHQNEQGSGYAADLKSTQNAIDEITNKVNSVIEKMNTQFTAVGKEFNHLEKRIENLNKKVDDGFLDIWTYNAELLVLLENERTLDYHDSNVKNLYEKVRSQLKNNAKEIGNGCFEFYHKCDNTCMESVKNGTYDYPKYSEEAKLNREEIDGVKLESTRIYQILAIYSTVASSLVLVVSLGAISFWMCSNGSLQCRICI

[13] = test system: H5 HA (strain A/duck/Hunan/795/2002); format: cell-based, influenza A virus
[14] = read-out: Antiviral EC50 against A/H1N1 virus, PR8 strain, MTS
[15] = read-out: Antiviral EC50 against A/H1N1 virus, PR8 strain, Microscopy
[16] = Influenza A virus, MDCK, read-out: Antiviral EC50 against A/H1N1 virus, Virg09 strain, MTS
[17] = Influenza A virus, MDCK, read-out: Antiviral EC50 against A/H1N1 virus, Virg09 strain, Microscopy
[18] = read-out: Antiviral EC50 for PR8 virus
[19] = Influenza A virus, MDCK, read-out: Antiviral EC50 for Virg09 virus
[20] = read-out: Antiviral EC50 against A/H1N1 virus, Virg09 strain, MTS

For `CCOC(=O)c1c(CSc2ccccc2)n(C)c2cc(Br)c(O)c(CN(C)C)c12` [Arbidol, reference compound], the “Fold lower potency than VF-57a in pseudovirus entry” value [1] was roughly 20 fold, the EC50 [1] was 15000 nM and the “Binding of H1 HA to stem antibody C179 after acidic incubation (pH 5.2) in presence of compound” value (from here on “Binding of H1 HA to stem antibody C179”) [2] was “only slightly protected”. The EC50 ([3]; MDCK, 72 h) was 10000 nM.

Work on `O=C1c2c(O)c(=O)ccn2N([C@@H]2c3ccccc3SCc3c2ccc(F)c3F)[C@@H]2COCCN12` [BXA, baloxavir acid] yielded an EC50 [4, 14] of 6.1 ± 1.7 nM, an EC50 [4, 15] of 6.1 ± 2 nM and an EC50 [5] of 1.1 nM. For the same molecule, the EC50 [6, 16] was 3.2 ± 0.4 nM, the EC50 [6, 17] was 3.5 nM and the “Cytotoxicity MCC, Microscopy” value [7] was greater than 0.1 µM.

For `O=C(NCCc1cccs1)c1cc(F)cc(C(F)(F)F)c1` [Compound 20], the EC50 [8] is listed as 220 nM.

For `Cc1cc(CNS(=O)(=O)c2ccc(C#N)cc2)c(C)s1` [Compound 21], the EC50 [9] is listed as 470 nM.

`Cc1cc(CNC(=O)c2cc(F)cc(C(F)(F)F)c2)c(C)s1` [Compound 22, N-[(2,5-Dimethylthiophen-3-yl)methyl]-3-fluoro-5-(trifluoromethyl)benzamide] gave an EC50 [4, 14] of 1100 ± 300 nM, an EC50 [4, 15] of 1500 ± 600 nM and an EC50 [4, 18] of roughly 1000 nM. The “Selectivity index (ratio of CC50 to EC50, SI)” value [10] was greater than 100, the “ΔΔG (exp), change VF-57a → labelled compound” value [6] was 0.2 kcal/mol and the “ΔΔG (exp), change labelled compound → VF-57a” value [6] was “–0.2 kcal/mol”. It also gave an EC50 [6, 16] of 400 nM, an EC50 [6, 17] of 1700 ± 1100 nM and an EC50 [6, 19] of roughly 1000 nM. For the same molecule, the EC50 [6, 20] was 440 ± 190 nM, the “Cytotoxicity at 100 μM (in words)” value [7] was “without showing any cytotoxicity” and the “Cytotoxicity MCC, Microscopy” value [7] was greater than 100 µM. For the same molecule, the CC50 [11] was greater than 100000 nM.

`Cc1cc(CNC(=O)c2cc(Cl)cc(C(F)(F)F)c2)c(C)s1` [Compound 23, 3-Chloro-N-[(2,5-dimethylthiophen-3-yl)methyl]-5-(trifluoromethyl)benzamide] gave an EC50 [12] of 950 nM, an EC50 [4, 14] of 920 ± 190 nM and an EC50 [4, 15] of 1100 ± 200 nM. For the same molecule, the EC50 [4, 18] was 1000 nM, the EC50 [10] was roughly 800 nM and the EC50 [5] was 840 nM. The EC50 [1] was 300 nM, the EC50 [6, 16] was 300 nM and the EC50 [6, 17] was 710 ± 450 nM. The EC50 [6, 19] was 500 nM, the EC50 [6, 20] was 310 ± 120 nM and the “Cytotoxicity MCC, Microscopy” value [7] was greater than 100 µM. For the same molecule, the “Binding of H1 HA to stem antibody C179” value [2] was “remained significantly higher”, the “Effect of compound binding to HA (exposed to pH 7) on subsequent binding of antibody C179” value ([2]; pH 7) was “no effect” and the CC50 [11] was greater than 100000 nM. For the same molecule, the EC50 ([3]; MDCK, 72 h) was 800 nM, the EC50 [3] was 810 nM and the “Inhibition of H5 HA cell-cell fusion at 6.3 μM” value [13] was “partial”. The “Inhibition of H5 HA cell-cell fusion at 25 μM” value [13] was “almost complete” and the “Inhibition of H5 HA cell-cell fusion at 100 μM” value [13] was “complete inhibition”.

With `Cc1cc(CNC(=O)c2cc(C(F)(F)F)cc(C(F)(F)F)c2)c(C)s1` [Compound 25, N-[(2,5-Dimethylthiophen-3-yl)methyl]-3,5-bis(trifluoromethyl)benzamide] the EC50 [4, 18] was greater than 100000 nM, the “Antiviral activity against A/H1N1 virus (in words)” value (“Antiviral activity” for short) [10] was “abolished the antiviral activity” and the EC50 [6, 19] was greater than 100000 nM.

With `Cc1cc(Cl)cc(C(=O)NCc2cc(C)sc2C)c1` [Compound 29, 3-Chloro-N-[(2,5-dimethylthiophen-3-yl)methyl]-5-methylbenzamide] the EC50 [4, 18] was greater than 100000 nM, the “Antiviral activity” value [10] was “No activity” and the EC50 [6, 19] was greater than 100000 nM.

For `Cc1cc(CNC(=O)c2cc(C(F)(F)F)c(F)c(F)c2F)c(C)s1` [Compound 36, N-((2,5-Dimethylthiophen-3-yl)methyl)-2,3,4-trifluoro-5-(trifluoromethyl)benzamide], the EC50 [4, 18] was greater than 100000 nM, the “Antiviral activity” value [10] was “abolished the antiviral effect” and the EC50 [6, 19] was greater than 100000 nM.

With `Cc1cc(CNC(=O)c2cc(C(F)(F)F)cc(Cl)c2F)c(C)s1` [Compound 37, 3-Chloro-N-((2,5-dimethylthiophen-3-yl)methyl)-2-fluoro-5-(trifluoromethyl)benzamide] the EC50 [4, 14] was 2900 nM, the EC50 [4, 15] was 1600 ± 800 nM and the “Antiviral activity” value [10] was “less active”. The EC50 [6, 16] was greater than 100000 nM, the EC50 [6, 17] was greater than 100000 nM and the “Cytotoxicity MCC, Microscopy” value [7] was 56 ± 22 µM. The CC50 [11] was greater than 100000 nM.

In the case of `Cc1cc(CNC(=O)c2cc(Cl)c(F)c(C(F)(F)F)c2)c(C)s1` [Compound 38, 3-Chloro-N-((2,5-dimethylthiophen-3-yl)methyl)-4-fluoro-5-(trifluoromethyl)benzamide], the EC50 [4, 14] is reported as 270 ± 120 nM, the EC50 [4, 15] is reported as 1600 ± 800 nM and the “Antiviral activity” value [10] is reported as “good antiviral activity”. For the same molecule, the “ΔΔG (exp), change VF-57a → labelled compound” value [6] was “–0.3 kcal/mol”, the “ΔΔG (exp), change labelled compound → VF-57a” value [6] was 0.3 kcal/mol and the EC50 [6, 16] was 100 nM. For the same molecule, the EC50 [6, 17] was 3100 ± 500 nM, the EC50 [6, 20] was 180 ± 40 nM and the “Cytotoxicity MCC, Microscopy” value [7] was 40 µM. For the same molecule, the CC50 [11] was greater than 100000 nM.

In the case of `Cc1cc(CNC(=O)c2cc(Cl)cc(C(F)(F)F)c2Cl)c(C)s1` [Compound 39, 2,5-Dichloro-N-((2,5-dimethylthiophen-3-yl)methyl)-3-(trifluoromethyl)benzamide], the EC50 [4, 14] is reported as 5900 ± 3200 nM, the EC50 [4, 15] is reported as 11000 ± 6000 nM and the “Antiviral activity” value [10] is reported as “less active”. For the same molecule, the EC50 [6, 16] was 820 ± 610 nM, the EC50 [6, 17] was 8100 ± 500 nM and the “Cytotoxicity MCC, Microscopy” value [7] was 52 ± 25 µM. It also gave a CC50 [11] greater than 100000 nM.

In the case of `Cc1cc(COC(=O)c2cc(F)cc(C(F)(F)F)c2)c(C)s1` [Compound 63, (2,5-Dimethylthiophen-3-yl)methyl 3-fluoro-5-(trifluoromethyl)benzoate], the EC50 [4, 18] is reported as greater than 100000 nM, the “Antiviral activity” value [10] is reported as “Neither the ester 63 nor the secondary amine 64 showed antiviral activity; also recorded: inactive” and the EC50 [6, 19] is reported as greater than 100000 nM.

With `Cc1cc(CNCc2cc(F)cc(C(F)(F)F)c2)c(C)s1` [Compound 64, 1-(2,5-Dimethylthiophen-3-yl)-N-(3-fluoro-5-(trifluoromethyl)benzyl)methanamine] the EC50 [4, 18] was greater than 100000 nM, the “Antiviral activity” value [10] was “Neither the ester 63 nor the secondary amine 64 showed antiviral activity; also recorded: inactive” and the EC50 [6, 19] was greater than 100000 nM.

In the case of `Cc1cc(C(=O)NCc2cc(F)cc(C(F)(F)F)c2)c(C)s1` [Compound 65, N-(3-Fluoro-5-(trifluoromethyl)benzyl)-2,5-dimethylthiophene-3-carboxamide], the EC50 [4, 18] is reported as greater than 100000 nM, the “Antiviral activity” value [10] is reported as “fully inactive” and the EC50 [6, 19] is reported as greater than 100000 nM.

Molecule `CC(C)c1ccccc1NCCN1CCCCC1` [RL-007, reference compound] has an EC50 [12] of 4100 nM, an EC50 [4, 14] of 1400 nM and an EC50 [4, 15] of 1500 ± 100 nM. For the same molecule, the EC50 [10] was 600 to 1500 nM, the EC50 [5] was 530 nM and the “Fold higher activity against A/H1N1 than A/H5N1 pseudovirus” value [1] was roughly 127 fold. It also gave an EC50 [1] of 79 nM, an EC50 [6, 16] of 610 ± 60 nM and an EC50 [6, 17] of 690 ± 90 nM. For the same molecule, the “Cytotoxicity MCC, Microscopy” value [7] was greater than 40 µM, the “Binding of H1 HA to stem antibody C179” value [2] was “remained significantly higher” and the CC50 [11] was 33000 ± 5000 nM. For the same molecule, the EC50 ([3]; MDCK, 72 h) was 10000 nM, the “Inhibition of H5 HA cell-cell fusion at 6.3 μM” value [13] was “inactive” and the “Inhibition of H5 HA cell-cell fusion at 25 μM” value [13] was “partially effective”. For the same molecule, the “Inhibition of H5 HA cell-cell fusion at 100 μM” value [13] was “complete inhibition”.
